Test results from patent US20260274799A1, “HETEROCYCLIC DERIVATIVES, COMPOSITIONS AND USES THEREOF” (DANATLAS PHARMACEUTICALS CO., LTD., priority 2023, published 2026).
Read-outs that look alike come from different tables or passages of the source.

Target: T1, PPARγ-LBD (UniProt ID: P37231-2) (Homo sapiens, UniProt P37231)
T1 construct: PPARγ-LBD (UniProt ID: P37231-2) was expressed and purified in insect system; made in house
T1 sequence (P37231 238-503 limits assumed): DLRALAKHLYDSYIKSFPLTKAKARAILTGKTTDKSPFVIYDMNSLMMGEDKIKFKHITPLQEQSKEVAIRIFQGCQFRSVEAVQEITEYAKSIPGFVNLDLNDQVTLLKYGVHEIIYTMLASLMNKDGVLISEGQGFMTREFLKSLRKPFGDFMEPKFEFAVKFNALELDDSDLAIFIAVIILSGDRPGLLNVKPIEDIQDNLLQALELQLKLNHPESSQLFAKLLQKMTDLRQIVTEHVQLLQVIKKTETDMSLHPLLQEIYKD
Assay: PPARγ-SMRT recruitment assay (TR-FRET)
Type: biochemical
Conditions: for EC50: TR-FRET, SMRT peptide recruitment to PPARγ-LBD, 120 min pre-incubation; for Emax: 1 h, read-out: Top %
Protocol: PPARγ TR-FRET assay was initiated to evaluate potential activatory effect of the compounds of the present disclosure for SMRT recruitment to PPARγ protein. PPARγ-LBD (UniProt ID: P37231-2) was expressed and purified in insect system and stored at −80° C. in aliquots. Biotinylated SMRT peptide was synthesized (Biotin-[…]). 5 μL protein solution mixture consisting of 10 nM PPARγ-LBD and 2 nM Anti-His Eu (Cisbio, 61HISKLA) in assay buffer (25 mM HEPES pH7.4, 25 mM KCl, 1 mM EDTA, 0.01% BSA, 0.01% Tween-20, 1 mM TCEP) was added to 384-well plates containing duplicate 10-point dose response titration of compounds in 5 μL assay buffer (1% f.c. DMSO(v/v)). After 120 min pre-incubation at room temperature, 5 μL peptide solution mixture consisting of 50 nM Biotin-SMRT peptide and 25 nM Streptavidin-XL665 (Cisbio, 610SAXLA) added to plates. Plates were incubated for 60 min. and read in CLARIOstar Plus plate reader with Ex/Em 620 nm/[…]. Average TR-FRET ratio of high control (Wells with 10 uM control compound) was calculated as High Control (HC). Average TR-FRET ratio of low control (Wells with 1% DMSO) was calculated as Low control (LC). For one compound, top % is the max value of % Activation.
EC50 values were determined by fitting the data to the standard 4 parameters with Hill Slope using GraphPad Prism software. […] ND: No Determine.

[1] = max value of % Activation, high control 10 uM control compound, low control 1% DMSO

Row | SMILES | EC50 [nM] | Emax [1] [%] | Emax [%]
1 | Cc1cc(C#Cc2c(F)cc3[nH]c(-c4cc(C#N)ccc4S(C)(=O)=O)cc(=O)c3c2F)ccn1 [Example 27, 3-(5,7-Difluoro-6-((2-methylpyridin-4-yl)ethynyl)-4-oxo-1,4-dihydroquinolin-2-yl)-4-(methylsulfonyl)benzonitrile] | < 100 | – | –
2 | Cc1cnccc1C#Cc1c(F)cc2[nH]c(-c3cc(C#N)ccc3S(C)(=O)=O)cc(=O)c2c1F [Example 28, 3-(5,7-Difluoro-6-((3-methylpyridin-4-yl)ethynyl)-4-oxo-1,4-dihydroquinolin-2-yl)-4-(methylsulfonyl)benzonitrile] | < 100 | 293 | –
3 | Cc1ncccc1C#Cc1c(F)cc2[nH]c(-c3cc(C#N)ccc3S(C)(=O)=O)cc(=O)c2c1F [Example 29, 3-(5,7-Difluoro-6-((2-methylpyridin-3-yl)ethynyl)-4-oxo-1,4-dihydroquinolin-2-yl)-4-(methylsulfonyl)benzonitrile] | < 100 | 357 | –
4 | COc1ccccc1C#Cc1c(F)cc2[nH]c(-c3cc(C#N)ccc3S(C)(=O)=O)cc(=O)c2c1F [Example 30, 3-(5,7-Difluoro-6-((2-methoxyphenyl)ethynyl)-4-oxo-1,4-dihydroquinolin-2-yl)-4-(methylsulfonyl)benzonitrile] | < 100 | 283 | –
5 | Cc1cccc(C#Cc2c(F)cc3[nH]c(-c4cc(C#N)ccc4S(C)(=O)=O)cc(=O)c3c2F)n1 [Example 31, 3-(5,7-Difluoro-6-((6-methylpyridin-2-yl)ethynyl)-4-oxo-1,4-dihydroquinolin-2-yl)-4-(methylsulfonyl)benzonitrile] | < 100 | 181 | –
6 | Cc1cncc(C)c1C#Cc1c(F)cc2[nH]c(-c3cc(C#N)ccc3S(C)(=O)=O)cc(=O)c2c1F [Example 32, 3-(6-((3,5-Dimethylpyridin-4-yl)ethynyl)-5,7-difluoro-4-oxo-1,4-dihydroquinolin-2-yl)-4-(methylsulfonyl)benzonitrile] | < 100 | 343 | –
7 | CS(=O)(=O)c1ccc(C#N)cc1-c1cc(=O)c2c(F)c(C#Cc3ccccc3Cl)c(F)cc2[nH]1 [Example 33, 3-(6-((2-Chlorophenyl)ethynyl)-5,7-difluoro-4-oxo-1,4-dihydroquinolin-2-yl)-4-(methylsulfonyl)benzonitrile] | < 100 | 502 | –
8 | CS(=O)(=O)c1ccc(C#N)cc1-c1cc(=O)c2c(F)c(C#CC3CCOC3)c(F)cc2[nH]1 (stereo not drawn) [Example 34, 3-(5,7-Difluoro-4-oxo-6-((tetrahydrofuran-3-yl)ethynyl)-1,4-dihydroquinolin-2-yl)-4-(methylsulfonyl)benzonitrile] | < 100 | 290 | –
9 | Cc1noc(C)c1C#Cc1c(F)cc2[nH]c(-c3cc(C#N)ccc3S(C)(=O)=O)cc(=O)c2c1F [Example 35, 3-(6-((3,5-Dimethylisoxazol-4-yl)ethynyl)-5,7-difluoro-4-oxo-1,4-dihydroquinolin-2-yl)-4-(methylsulfonyl)benzonitrile] | < 100 | 243 | –
10 | CS(=O)(=O)c1ccc(C#N)cc1-c1cc(=O)c2c(F)c(C#Cc3ccccc3OC(F)(F)F)c(F)cc2[nH]1 [Example 36, 3-(5,7-Difluoro-4-oxo-6-((2-(trifluoromethoxy)phenyl)ethynyl)-1,4-dihydroquinolin-2-yl)-4-(methylsulfonyl)benzonitrile] | < 100 | 322 | –
11 | CS(=O)(=O)c1ccc(C#N)cc1-c1cc(=O)c2c(F)c(C#Cc3ccccc3OC(F)F)c(F)cc2[nH]1 [Example 37, 3-(6-((2-(Difluoromethoxy)phenyl)ethynyl)-5,7-difluoro-4-oxo-1,4-dihydroquinolin-2-yl)-4-(methylsulfonyl)benzonitrile] | < 100 | 406 | –
12 | COc1cccnc1C#Cc1c(F)cc2[nH]c(-c3cc(C#N)ccc3S(C)(=O)=O)cc(=O)c2c1F [Example 38, 3-(5,7-Difluoro-6-((3-methoxypyridin-2-yl)ethynyl)-4-oxo-1,4-dihydroquinolin-2-yl)-4-(methylsulfonyl)benzonitrile] | < 100 | – | –
13 | Cc1ccc(C#Cc2c(F)cc3[nH]c(-c4cc(C#N)ccc4S(C)(=O)=O)cc(=O)c3c2F)cc1 [Example 39, 3-(5,7-Difluoro-4-oxo-6-(p-tolylethynyl)-1,4-dihydroquinolin-2-yl)-4-(methylsulfonyl)benzonitrile] | < 100 | 406 | –
14 | CS(=O)(=O)c1ccc(C#N)cc1-c1cc(=O)c2c(F)c(C#Cc3cnc4cccnn34)c(F)cc2[nH]1 [Example 40, 3-(5,7-Difluoro-6-(imidazo[1,2-h]pyridazin-3-ylethynyl)-4-oxo-1,4-dihydroquinolin-2-yl)-4-(methylsulfonyl)benzonitrile] | < 100 | 237 | –
15 | CS(=O)(=O)c1ccc(C#N)cc1-c1cc(=O)c2c(F)c(C#Cc3ccccc3C#N)c(F)cc2[nH]1 [Example 42, 3-(6-((2-Cyanophenyl)ethynyl)-5,7-difluoro-4-oxo-1,4-dihydroquinolin-2-yl)-4-(methylsulfonyl)benzonitrile] | < 100 | 231 | –
16 | COc1nccnc1C#Cc1c(F)cc2[nH]c(-c3cc(C#N)ccc3S(C)(=O)=O)cc(=O)c2c1F [Example 43, 3-(5,7-Difluoro-6-((3-methoxypyrazin-2-yl)ethynyl)-4-oxo-1,4-dihydroquinolin-2-yl)-4-(methylsulfonyl)benzonitrile] | < 100 | 237 | –
17 | CS(=O)(=O)c1ccc(C#N)cc1-c1cc(=O)c2c(F)c(C#Cc3ccccc3C(F)(F)F)c(F)cc2[nH]1 [Example 44, 3-(5,7-Difluoro-4-oxo-6-((2-(trifluoromethyl)phenyl)ethynyl)-1,4-dihydroquinolin-2-yl)-4-(methylsulfonyl)benzonitrile] | < 100 | 286 | –
18 | CC1(C#Cc2c(F)cc3[nH]c(-c4cc(C#N)ccc4S(C)(=O)=O)cc(=O)c3c2F)COC1 [Example 45, 3-(5,7-Difluoro-6-((3-methyloxetan-3-yl)ethynyl)-4-oxo-1,4-dihydroquinolin-2-yl)-4-(methylsulfonyl)benzonitrile] | < 100 | 249 | –
19 | CCS(=O)(=O)c1ccc(C#N)cc1-c1cc(=O)c2c(F)c(C#CC3COC3)c(F)cc2[nH]1 [Example 46, 3-(5,7-Difluoro-6-(oxetan-3-ylethynyl)-4-oxo-1,4-dihydroquinolin-2-yl)-4-(ethylsulfonyl)benzonitrile] | < 100 | 174 | –
20 | CS(=O)(=O)c1ccc(C#N)cc1-c1cc(=O)c2c(F)c(C#Cc3ccncc3OC(F)F)c(F)cc2[nH]1 [Example 47, 3-(6-((3-(Difluoromethoxy)pyridin-4-yl)ethynyl)-5,7-difluoro-4-oxo-1,4-dihydroquinolin-2-yl)-4-(methylsulfonyl)benzonitrile] | < 100 | – | 376
21 | CC(C)(C#Cc1c(F)cc2[nH]c(-c3cc(C#N)ccc3S(C)(=O)=O)cc(=O)c2c1F)S(C)(=O)=O [Example 48, 3-(5,7-Difluoro-6-(3-methyl-3-(methylsulfonyl)but-1-yn-1-yl)-4-oxo-1,4-dihydroquinolin-2-yl)-4-(methylsulfonyl)benzonitrile] | < 100 | – | –
22 | COCCC#Cc1c(F)cc2[nH]c(-c3cc(C#N)ccc3S(C)(=O)=O)cc(=O)c2c1F [Example 49, 3-(5,7-Difluoro-6-(4-methoxybut-1-yn-1-yl)-4-oxo-1,4-dihydroquinolin-2-yl)-4-(methylsulfonyl)benzonitrile] | < 100 | – | –
23 | COC(C)(C)C#Cc1c(F)cc2[nH]c(-c3cc(C#N)ccc3S(C)(=O)=O)cc(=O)c2c1F [Example 50, 3-(5,7-Difluoro-6-(3-methoxy-3-methylbut-1-yn-1-yl)-4-oxo-1,4-dihydroquinolin-2-yl)-4-(methylsulfonyl)benzonitrile] | < 100 | 372 | –
24 | CS(=O)(=O)c1ccc(C#N)cc1-c1cc(=O)c2c(F)c(C#Cc3ccccc3F)c(F)cc2[nH]1 [Example 51, 3-(5,7-Difluoro-6-((2-fluorophenyl)ethynyl)-4-oxo-1,4-dihydroquinolin-2-yl)-4-(methylsulfonyl)benzonitrile] | < 100 | 447 | –
25 | CS(=O)(=O)c1ccc(C#N)cc1-c1cc(=O)c2c(F)c(C#CC3CCOCC3)c(F)cc2[nH]1 [Example 52, 3-(5,7-Difluoro-4-oxo-6-((tetrahydro-2H-pyran-4-yl)ethynyl)-1,4-dihydroquinolin-2-yl)-4-(methylsulfonyl)benzonitrile] | < 100 | – | –
